Reference: patent EP4775570A1, “CYP11A1 INHIBITOR, PREPARATION METHOD THEREFOR AND USE THEREOF” (Shenzhen Zhongge Biological Technology Co., Ltd., priority 2023, dated 2025)

Columns and labels:
hERG channels = target: T1, hERG channels (Homo sapiens, UniProt Q12809); experiment: hERG testing, manual whole cell patch clamp; assay type: cell-based; details: IC50, hERG tail current, room temperature (~25°C), 0.1-30 µM
T1 construct: host or cells: HEK293
Description: The cells used in this experiment were HEK293 cell lines transfected with hERG cDNA and stably expressing hERG channels (#60187, provided by BPS Bioscience Inc., P3-P23 generations were used in the experiment). The cells were cultured in a culture medium containing the following components: MEM medium, 10% (v/v) inactivated fetal bovine serum, 1 mM sodium pyruvate, 500µg/ml geneticin, 0.1mM non-essential amino acid, 100U/ml penicillin-streptomycin. HEK293 hERG cells were grown in petri dishes containing the aforementioned culture medium and cultured in an incubator at 37°C and 5% CO2, passaged approximately three times a week and maintained at a cell fusion rate between 40% and 80%. […]
The electrophysiological experiment was carried out using a manual patch clamp system (HEKA EPC-10 signal amplifier and digital conversion system, HEKA Electronics, Germany) to record the whole cell currents. […] Only when the hERG potassium current recorded in the previous step achieved stable state under continuous extracellular fluid perfusion within the recording chamber, could the compound to be tested be continuously perfused until the inhibitory effect of the compound on the hERG current reaches a stable state. […]

[1] = LC-MS detection of concentrations of tested compounds in mouse plasma, tumors and adrenal glands; assay type: in vivo; details: compound + prednisone group vs ODM-208 + prednisone group of the VCaP model
From the text: • Mouse tumors were homogenized using PBS in a 1:5 ratio (tumor weight (g): PBS volume (mL), w/v); • Mouse adrenal glands were homogenized using PBS in a 1:10 ratio (adrenal gland weight (g): PBS volume (mL), w/v); • Standard sample: testosterone (LGC, C17322500), progesterone (MCE, HY-N0437), adrenal ketone (MCE, HY-B1618), and standard solution of test substance.
Concentrations of tested compounds in mouse plasma, tumors and adrenal glands: The multiple reaction monitoring (MRM) method was used to detect the concentrations in mouse plasma, tumors and adrenal glands. Mass spectrum: AB Sciex Triple Quad 6500+, liquid chromatography: Shimadzu 40A, column: XBridge BEH C18 2.5 µm 2.1*50mm, ODM208 ion pair: 419.20/176.20, tested compounds ion pair: 429.20/200.20. Acetonitrile was used as precipitant, and propranolol diclofenac were used as the internal standard for sample pretreatment in plasma, tumor, and adrenal tissue. The linear ranges of the standard in plasma tissue was 0.5-1000 ng/mL, the linear ranges of the standard in tumor tissue was 3-6000 ng/mL, and the linear ranges of the standard in adrenal tissue was 5.5-11000 ng/mL.

[2] = tested on: VCaP castration-resistant prostate cancer subcutaneous transplant tumor model; experiment: In vivo pharmacodynamic study in a VCaP castration-resistant prostate cancer subcutaneous transplant tumor model; design: species or system SCID-Beige mice; details: 30mg/kg BID oral + prednisone 0.6mg/kg QD; for tumor inhibitory activity (in words): compared with ODM-208
Description: Animals: experimental male SCID-Beige mice, 6-8-weeks old or 18-22g, provided by Beijing Vital River Laboratory Animal Technology Co., Ltd.
Experiment procedures: all experimental animals were kept within specific-pathogen-free animal barrier facility, and allowed 3 days of adaptation before the experiment began. VCaP tumor cells were in vitro cultured as monolayer in DMEM complete medium (with 10% fetal bovine serum and 1% penicillin & streptomycin) at 37°C in air containing 5% CO2. Tumor cells were routinely passaged 2-3 times a week, and cells in exponential growth phase were collected and counted for tumor cell inoculation. 10x10^6 VCaP tumor cells were resuspended in 0.1ml PBS, thoroughly mixed with 0.1ml matrigel, and then inoculated subcutaneously on the right flank of each mouse to form a tumor. The tumor-bearing mice were allowed to develop to an average tumor volume of around 200mm^3 and underwent castration surgery. The tumor volumes of all mice were measured after one week of castration surgery. Suitable tumor-bearing mice were selected and assigned randomly into the following groups: blank control group, prednisone (0.6mg/kg, QD) group, abiraterone (33.73mg/kg, QD) + prednisone (0.6mg/kg, QD) group, ODM-208 (30mg/kg, BID) + prednisone (0.6mg/kg, QD) group, and the compound of the present disclosure (30mg/kg, BID) + prednisone (0.6mg/kg, QD) group. Animals in blank control group were orally administered with vehicles (0.5%MC+0.5%Tween80 and 0.5%CMCNa), and the animals in other groups were orally administered with corresponding compound. The experiment lasted for 32 days, and during the experiment, the animals in each group were measured for tumor volume and body weight twice a week.

T1 sequence (Q12809 whole entry): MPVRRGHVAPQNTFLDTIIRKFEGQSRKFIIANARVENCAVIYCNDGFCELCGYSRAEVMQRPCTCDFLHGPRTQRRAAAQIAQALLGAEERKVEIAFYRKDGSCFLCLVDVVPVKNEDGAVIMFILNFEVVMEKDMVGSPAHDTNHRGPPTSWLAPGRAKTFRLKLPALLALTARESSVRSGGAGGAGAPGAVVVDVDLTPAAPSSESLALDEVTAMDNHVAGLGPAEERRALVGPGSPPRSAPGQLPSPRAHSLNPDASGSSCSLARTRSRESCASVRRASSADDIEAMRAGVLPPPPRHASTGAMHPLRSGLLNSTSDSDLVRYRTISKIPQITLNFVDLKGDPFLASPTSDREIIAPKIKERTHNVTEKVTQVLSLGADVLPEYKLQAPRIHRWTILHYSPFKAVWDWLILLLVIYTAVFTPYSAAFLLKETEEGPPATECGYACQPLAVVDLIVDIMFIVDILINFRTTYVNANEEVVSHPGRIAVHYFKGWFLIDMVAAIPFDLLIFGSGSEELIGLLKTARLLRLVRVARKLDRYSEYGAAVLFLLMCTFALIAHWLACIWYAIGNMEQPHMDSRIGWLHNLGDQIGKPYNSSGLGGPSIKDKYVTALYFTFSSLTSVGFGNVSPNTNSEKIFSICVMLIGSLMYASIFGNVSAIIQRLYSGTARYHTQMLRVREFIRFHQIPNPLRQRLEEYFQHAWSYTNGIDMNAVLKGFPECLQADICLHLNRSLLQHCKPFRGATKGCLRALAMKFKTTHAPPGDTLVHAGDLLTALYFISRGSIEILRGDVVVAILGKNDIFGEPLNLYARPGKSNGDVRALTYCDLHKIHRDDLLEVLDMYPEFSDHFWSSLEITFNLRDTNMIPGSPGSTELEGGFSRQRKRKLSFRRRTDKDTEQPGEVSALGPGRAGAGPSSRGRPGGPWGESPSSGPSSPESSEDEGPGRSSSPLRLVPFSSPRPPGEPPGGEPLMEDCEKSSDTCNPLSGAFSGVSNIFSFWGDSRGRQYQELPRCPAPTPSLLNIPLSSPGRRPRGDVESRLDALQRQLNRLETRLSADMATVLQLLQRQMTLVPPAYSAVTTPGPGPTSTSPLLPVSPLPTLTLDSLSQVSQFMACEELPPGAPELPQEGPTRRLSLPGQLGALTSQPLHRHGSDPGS

| drug concentration in adrenal glands relative to ODM-208 [1] | drug concentration in plasma relative to ODM-208 [1] | drug concentration in tumors relative to ODM-208 [1] | weight loss (in words) [2] | animal weight loss ([2]; 32 days) | Compound | IC50 (hERG channels) | tumor inhibitory activity (in words) [2] | tumor inhibition rate TGI ([2]; castrated tumor-bearing mice, 32 days) |
| --- | --- | --- | --- | --- | --- | --- | --- | --- |
|  |  |  |  |  | Cn1c(CN2Cc3ccccc3C2)c(F)cc(C=CC2CCN(C(=O)CC#N)CC2)c1=O [compound 112] | > 30 µM |  |  |
| 3.3 fold | 1.6 fold | 3.6 fold | without significant weight loss |  | Cn1c(CN2Cc3ccccc3C2)c(F)cc(CCC2CCN(S(C)(=O)=O)CC2)c1=O [compound 72] | > 30 µM | significantly better than ODM-208 |  |
| 80 fold | 3 fold | 10 fold | without significant weight loss | -2% | COc1cc(CN2Cc3ccccc3C2)ccc1CCC1CCN(S(C)(=O)=O)CC1 [compound 53] |  | significantly better than ODM-208 | 112% |
